Measurements reported in patent US8901165B2, “Alkoxylated glycerol acetals and their derivatives” (Cognis IP Management GmbH, priority 2009, dated 2014).

Experiments:
[1] = Foam potential, SITA foam tester R-2000; format: physicochemical; conditions: 0.1% aqueous solution/dispersion
Protocol: (§1) Foam properties and surface tension of various alkoxylated glycerol acetals were compared with data obtained from conventional fatty alcohol alkoxylates at 0.1 and 0.25% b.w. concentration, respectively. Foam potential was tested with SITA foam tester R-2000, available from SITA Messtechnik GmbH, Gostritzer Str. 61-63, 01217 Dresden, Germany. Dynamic surface tension was determined with the tensiometer SITA science line t60, ibid.

[2] = Dynamic and quasi-static surface tension, tensiometer SITA science line t60; format: physicochemical; conditions: for Surface Tension at 0.1 Hz: bubble frequency 0.1 Hz (quasi-static); for Surface Tension at 10 Hz: bubble frequency 10 Hz (dynamic)
From the text: Quasi-Static or equilibrium surface tension at an air-liquid interface can be determined by the Du Noüy ring method, the Wilhelmy plate or the like. […] To avoid such problems, a dynamic method is used but the frequency is reduced to 0.1 Hz or less, thus close enough to equilibrium conditions. […] The products therefore fulfill the complex profile as explained above perfectly.
as §1

[3] = 0.1% aqueous solution/dispersion
[4] = 0.25% aqueous solution/dispersion

Decanol + 5EO [Example C2, reference compound]
Foam after 1 min [1]: 190 mL
Foam after 5 min [1]: 170 mL
Surface Tension at 0.1 Hz [2, 3]: 26 mN/m
Surface Tension at 10 Hz [2, 3]: 40 mN/m

Decanol + 5EO [Example C4, reference compound]
Surface Tension at 0.1 Hz [2, 4]: 26 mN/m
Surface Tension at 10 Hz [2, 4]: 33 mN/m

Isodecanol + 6EO [Example C1, reference compound]
Foam after 1 min [1]: 225 mL
Foam after 5 min [1]: 210 mL
Surface Tension at 0.1 Hz [2, 3]: 27 mN/m
Surface Tension at 10 Hz [2, 3]: 40 mN/m

Isodecanol + 6EO [Example C3, reference compound]
Surface Tension at 0.1 Hz [2, 4]: 27 mN/m
Surface Tension at 10 Hz [2, 4]: 34 mN/m

iso-nonyl glycerol acetal+3PO+3EO [Example 5]
Foam after 1 min [1]: 0 mL
Foam after 5 min [1]: 0 mL
Surface Tension at 0.1 Hz [2, 3]: 31 mN/m
Surface Tension at 10 Hz [2, 3]: 43 mN/m

iso-nonyl glycerol acetal+3PO+3EO [Example 13]
Surface Tension at 0.1 Hz [2, 4]: 29 mN/m
Surface Tension at 10 Hz [2, 4]: 36 mN/m

n-decyl glycerol acetal+4PO+4EO [Example 2]
Foam after 1 min [1]: 100 mL
Foam after 5 min [1]: 80 mL
Surface Tension at 0.1 Hz [2, 3]: 30 mN/m
Surface Tension at 10 Hz [2, 3]: 52 mN/m

n-decyl glycerol acetal+4PO+4EO [Example 3]
Foam after 1 min [1]: 120 mL
Foam after 5 min [1]: 110 mL
Surface Tension at 0.1 Hz [2, 3]: 31 mN/m
Surface Tension at 10 Hz [2, 3]: 50 mN/m

n-decyl glycerol acetal+4PO+4EO [Example 10]
Surface Tension at 0.1 Hz [2, 4]: 32 mN/m
Surface Tension at 10 Hz [2, 4]: 38 mN/m

n-decyl glycerol acetal+4PO+4EO [Example 11]
Surface Tension at 0.1 Hz [2, 4]: 31 mN/m
Surface Tension at 10 Hz [2, 4]: 44 mN/m

n-octyl glycerol acetal+4PO+4EO [Example 1]
Foam after 1 min [1]: 30 mL
Foam after 5 min [1]: 25 mL
Surface Tension at 0.1 Hz [2, 3]: 32 mN/m
Surface Tension at 10 Hz [2, 3]: 44 mN/m

n-octyl glycerol acetal+4PO+4EO [Example 9]
Surface Tension at 0.1 Hz [2, 4]: 32 mN/m
Surface Tension at 10 Hz [2, 4]: 39 mN/m
